One data set has as its system U373MG cells. As to the kind of experiment: Quantitative peptide uptake, U373MG. Particulars: TAMRA-labelled peptides 1, 2.5, 5 μM, 1 h, 37 °C, lysate fluorescence 544/590 nm, two experiments in triplicate. Type of data set: cell-based. As for the experimental part:
(§1) U373MG and U251 cells were maintained as above and then transferred to 6-well plates and grown to 80% confluence. Cells were washed and maintained in phenol red-free DMEM and subsequently treated with TAMRA-conjugated Djeya1 analogues at final concentrations of 1 μM, 2.5 μM, and 5 μM for 1 h in culture conditions as above. Cells were washed four times, detached with 300 μL of 1% (w/v) trypsin (without phenol red) at 37 °C, collected by centrifugation, and lysed in 300 μL 0.1 M NaOH for 2 h on ice. A total of 250 μL of each sample cell lysate was transferred to a black 96-well plate and analysed using a Thermo Fischer Scientific (Loughborough, UK) Fluoroskan Ascent FL fluorescence spectrophotometer (λAbs 544 nm/λEm 590 nm).

The nature of data set [1]: Circular dichroism secondary structure analysis. Type of data set: physicochemical. Particulars: CD. As for the experimental part: Secondary structure analyses of Djeya1 peptides were performed on a Jasco J-815 CD spectrometer (Jasco Ltd., Heckmondwike, UK). Peptides (0.01 mg mL^−^1) were dissolved in either 1 × phosphate buffered saline (PBS) at pH 7.4 or in a 2,2,2-tetrafluoroethanol (TFE) and 1 × PBS mixture (50.0% v/v). All buffers were prepared using ultra-pure water (resistivity 18 MΩ cm), PBS and TFE (Scientific Laboratory Supplies Ltd., Nottingham, UK). CD experiments were also performed at peptide:lipid ratios of 1:100, whilst 1,2-dimyristoyl-sn-glycero-3-phosphatidylcholine (DMPC) and 1,2-dimyristoyl-sn-glycero-3-phosphatidylserine (DMPS) (5 mg mL^−^1) (Avanti Polar Lipids, Alabaster, AL, USA) were dissolved separately in chloroform (HPLC grade, VWR International Ltd Lutterworth, UK) and dried under N2 gas. The lipid film was rehydrated using 1 × PBS, pH 7.5 for 1 h or until the solution was no longer turbid. The solution then underwent 5 cycles of freeze thaw before the lipid/peptide samples were prepared by the addition of peptide stock solution (final concentration 0.01 mg mL^−^1). Far UV CD spectra (180 nm to 260 nm) were recorded at 20 °C using 0.5 nm intervals, a bandwidth of 1 nm, a scan speed of 50 nm min^−1 and a 10 mm path-length cell. Ten accumulations were selected to average a single spectrum. Samples without peptide were prepared for background spectral subtraction. Data, baseline-subtracted and averaged CD, were analyzed using the Dichroweb server CDSSTR and SELCON3 reference dataset 3 [23, 24, 25]. To generate percentage structure averages, these analyses were repeated four times.
On the technique in general: CD spectra are sensitive to the conformation of chiral molecules.

The subject of data set [2] is decapitated S. mediterranea. Kind of data set: Anterior pole regeneration and eye development assay. Type of data set: in vivo, Schmidtea mediterranea. Particulars: 25 μM exogenous application to decapitated S. mediterranea, monitored over 8 days. As for the experimental part: Adult planaria, 4–6 mm in length, and selected for experimentation were starved 5 days prior to amputation. Transverse amputation of planarian heads, post-auricle and pre-pharynx, induced blastema formation in the trunk section, leading to eye regeneration and head remodeling.
Post amputation, planaria were immediately treated with exogenously added Djeya1 analogues in 35 mm diameter × 10 mm depth culture dishes (VWR International Ltd., Lutterworth, UK) to a final volume of 4 mL PAM and maintained at 20 °C. PAM, containing Djeya1 analogues, was replenished 4 days post amputation. […]

In a further data set the test system is U251 cells. As to the kind of experiment: Quantitative peptide uptake, U251. Type of data set: cell-based. To be noted: U251, TAMRA-labelled peptides 1, 2.5, 5 μM, 1 h, 37 °C, lysate fluorescence 544/590 nm, two experiments in triplicate. The method, then:
as §1

[3] abbreviates: 50% (v/v) TFE/PBS pH 7.4, peptide 0.01 mg mL-1, 20 °C.
[4] abbreviates: DMPC vesicles, lipid:peptide 100 to 1, PBS, peptide 0.01 mg mL-1, 20 °C.
Setting [5] is: DMPS vesicles, lipid:peptide 100 to 1, PBS, peptide 0.01 mg mL-1, 20 °C.
Where [6] appears, read: PBS pH 7.4, peptide 0.01 mg mL-1, 20 °C, Dichroweb, analyses repeated four times.

[ ]: non-standard residue; d: D form. Aib = CC(C)(N)C(=O)O

With “H-RKLAFRYRR[Aib]KELYNSYR-NH2 (SMILES CC(C)C[C@H](NC(=O)[C@H](CCCCN)NC(=O)[C@@H](N)CCCNC(=N)N)C(=O)N[C@@H](C)C(=O)N[C@@H](Cc1ccccc1)C(=O)N[C@@H](CCCNC(=N)N)C(=O)N[C@@H](Cc1ccc(O)cc1)C(=O)N[C@@H](CCCNC(=N)N)C(=O)N[C@@H](CCCNC(=N)N)C(=O)NC(C)(C)C(=O)N[C@@H](CCCCN)C(=O)N[C@@H](CCC(=O)O)C(=O)N[C@@H](CC(C)C)C(=O)N[C@@H](Cc1ccc(O)cc1)C(=O)N[C@@H](CC(N)=O)C(=O)N[C@@H](CO)C(=O)N[C@@H](Cc1ccc(O)cc1)C(=O)N[C@@H](CCCNC(=N)N)C(N)=O) [[Aib^10]Djeya1, Aib-substituted Djeya1 analogue, position 10]”, the figures for the “rank order of uptake efficacy” value in the data set on U373MG cells and in the data set on U251 cells were “[Aib^16]Djeya1 = [Aib^10]Djeya1 > [Aib^13]Djeya1” and “[Aib^13]Djeya1 > [Aib^16]Djeya1 > [Aib^10]Djeya1”, respectively. In addition, the Unordered is listed as 20.00 ± 0.00% in data set [1] (setting [3]), 22.00 ± 1.41% in data set [1] (setting [4]), 16.00 ± 0.00% in data set [1] (setting [5]) and 20.67 ± 0.58% in data set [1] (setting [6]). Moreover, the ß-Strand came to 21.00 ± 0.02% in data set [1] (setting [3]), 15.00 ± 0.00% in data set [1] (setting [5]) and 31.33 ± 0.58% in data set [1] (setting [6]). Also, the ß-Turns turned out to be 7.50 ± 0.71% in data set [1] (setting [3]), 7.00 ± 1.41% in data set [1] (setting [4]), 5.00 ± 0.00% in data set [1] (setting [5]) and 7.00 ± 0.00% in data set [1] (setting [6]). The α-helix in data set [1] (50% (v/v) TFE/PBS pH 7.4, peptide 0.01 mg mL-1, 20 °C, Dichroweb, analyses repeated four times) came to 51.50 ± 0.07%; in data set [1] (setting [4]) it was 45.00 ± 1.58%; in data set [1] (setting [5]), 63.00 ± 2.82%; in data set [1] (PBS pH 7.4, peptide 0.01 mg mL-1, 20 °C, Dichroweb CDSSTR/SELCON3, analyses repeated four times), 41.33 ± 1.15%. For the same substance, in data set [2], the “influence upon planarian head regeneration” value is “inactive”.
